According to US5885987A, “Phenylene derivatives” (Kowa Co., Ltd., priority 1996, dated 1999):
Read-outs that look alike come from different tables or passages of the source.

How the values were obtained:
leukotriene D4 = assay: Anti-LTD4 action in vivo, Evans Blue transudation in back skin after intracutaneous leukotriene D4; set-up: species or system male Hartley guinea pig; conditions: Cavia porcellus, po, 1 h; orally 10 mg/kg, one hour before; leukotriene D4 0.5 μg/ml, 0.1 ml intracutaneously; read-out: Anti-LTD4 action (%), inhibition rate
Protocol: Antihistaminic Action and Anti-LTD4 Action (In vivo Tests)
After the hair on the back of a male Hartley guinea pig was cut off, a test compound was orally administered at 10 mg/kg. One hour later, 5% Evans Blue solution was intravenously administered at 1 ml/kg and immediately after that, a 0.3 μg/ml solution of histamine and a 0.5 μg/ml solution of leukotriene D4 were intracutaneously administered each in an amount of 0.1 ml to the back. Thirty minutes later, the guinea pig was sacrificed under exsanguination, the skin was cut off, and the transudated color was quantitated by extraction. To a control, 0.5% CMC (carboxylmethylcellulose) was orally administered and the subsequent procedures were repeated likewise. From the difference in the amount of the transudated color between the control and the group administered with the test compound, an inhibition rate was calculated.

H1 receptor = biological target: T1, H1 receptor (Cavia porcellus, UniProt P31389); assay: H1 receptor binding inhibition test ([^3 H]mepyramin, guinea pig cerebromembranous protein); conditions: for inhibition at 100 µM: a: 100 μM; for inhibition at 100 µM / inhibition at 10 µM: read-out: H1 receptor (%), inhibition rate; for inhibition at 10 µM: b: 10 μM; for Kd: read-out: H1 receptor, dissociation constant KD
T1 construct: guinea pig cerebromembranous protein; from tissue; host or cells: guinea pig cerebral (brain) membranes
Protocol: 1) H1 Receptor Binding Inhibition Test
An ice-cooled phosphate buffer was added to terminate the reaction, followed by immediate filtration through a Wattman CF/C filter. The filter was washed twice with 20 ml aliquots of the ice-cooled buffer. The radioactivity of the residue was measured by a liquid scintillation counter. From a measurement value obtained without the addition of the test compound and measurements values obtained upon addition of the test compound at various concentrations, the dose-response of the inhibitory action of the test compound was measured and the 50% inhibitory concentration (IC50) was determined. Using the Cheng-Prusoff formula, a dissociation constant was calculated from the IC50. In a binding assay, 10^-4 M R(-)dimethindene was used for the measurement of a nonspecific binding.

LTD4 receptor = biological target: T2, LTD4 receptor (Cavia porcellus, UniProt Q2NNR5); assay: LTD4 receptor binding inhibition test ([^3 H]leukotriene D4, guinea pig pulmomembranous protein); conditions: for Kd: read-out: LTD4 receptor, dissociation constant KD
T2 construct: guinea pig pulmomembranous protein; from tissue; host or cells: guinea pig lung membranes
T2 sequence (Q2NNR5 1-340): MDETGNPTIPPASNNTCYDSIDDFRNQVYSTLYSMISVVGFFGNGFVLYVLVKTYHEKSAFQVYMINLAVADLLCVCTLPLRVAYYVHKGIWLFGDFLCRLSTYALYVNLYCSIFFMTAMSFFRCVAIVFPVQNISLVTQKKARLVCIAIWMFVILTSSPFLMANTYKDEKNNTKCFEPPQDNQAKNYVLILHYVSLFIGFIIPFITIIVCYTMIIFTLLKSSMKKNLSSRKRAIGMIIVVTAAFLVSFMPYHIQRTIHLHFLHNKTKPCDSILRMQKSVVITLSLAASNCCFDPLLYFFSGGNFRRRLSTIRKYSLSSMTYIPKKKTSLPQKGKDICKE
Protocol: 2) LTD4 Receptor Binding Inhibition Test
An ice-cooled tris hydrochloride/sodium chloride buffer (10 mM/100 mM, pH 7.5) was added to terminate the reaction, followed by immediate filtration through a Wattman CF/C filter. The filter was washed twice with 20 ml aliguots of the ice-cooled buffer. The radioactivity of the residue was measured by a liquid scintillation counter. […] In a binding assay, 2 μM leukotriene D4 was used for the measurement of a nonspecific binding.

[1] = biological target: T3, isolated guinea pig ileum (histamine) (Cavia porcellus, UniProt P31389); assay: Antihistaminic action (in vitro), inhibition of histamine-induced contraction of isolated ileum; format: cell-based; conditions: for pD'2 (antihistaminic action): isolated guinea pig ileum, histamine, 30 min; for inhibition at 10 µM: 10^-5 M, 30 minutes incubation, 37° C., read-out: Antihistaminic (%), contraction inhibition rate
T3 construct: An isolated guinea pig ileum was cut into about 2 cm lengths; from tissue; host or cells: isolated guinea pig ileum
Protocol: (§1) Antihistaminic Action and Anti-LTD4 Action (In vitro Tests)
(§2) An isolated guinea pig ileum was cut into about 2 cm lengths. Each ileum piece was suspended in a 20-ml container filled with the Krebs buffer. An isotonic contractive response by histamine or leukotriene D4 was recorded on a recorder. The Krebs buffer was controlled at 37° C., through which a mixed gas (95%O2 -5%CO2) was bubbled. First, histamine or leukotriene D4 was added to an organ bath to measure its dose-response. After the ileum piece was washed several times with the buffer, a test compound (will be identified by its example number; this will apply likewise hereinafter) of a predetermined specific concentration was added. Subsequent to incubation for 30 minutes, the dose-response of histamine or leukotriene D4 was measured again. Incidentally, in Table 7, the values (%) indicate contraction inhibition rate at 10^-5 M, while the values in parentheses show pD'2 values in the case of antihistaminic action and IC50 values in the case of anti-LTD4 action.

[2] = test system: isolated guinea pig ileum (leukotriene D4); assay: Anti-LTD4 action (in vitro), inhibition of leukotriene D4-induced contraction of isolated ileum; format: cell-based; conditions: Cavia porcellus; for IC50: isolated guinea pig ileum, leukotriene D4
Protocol: as §1, §2

[3] = b: 10 μM, read-out: LTD4 receptor (%), inhibition rate

T1 sequence (P31389 whole entry): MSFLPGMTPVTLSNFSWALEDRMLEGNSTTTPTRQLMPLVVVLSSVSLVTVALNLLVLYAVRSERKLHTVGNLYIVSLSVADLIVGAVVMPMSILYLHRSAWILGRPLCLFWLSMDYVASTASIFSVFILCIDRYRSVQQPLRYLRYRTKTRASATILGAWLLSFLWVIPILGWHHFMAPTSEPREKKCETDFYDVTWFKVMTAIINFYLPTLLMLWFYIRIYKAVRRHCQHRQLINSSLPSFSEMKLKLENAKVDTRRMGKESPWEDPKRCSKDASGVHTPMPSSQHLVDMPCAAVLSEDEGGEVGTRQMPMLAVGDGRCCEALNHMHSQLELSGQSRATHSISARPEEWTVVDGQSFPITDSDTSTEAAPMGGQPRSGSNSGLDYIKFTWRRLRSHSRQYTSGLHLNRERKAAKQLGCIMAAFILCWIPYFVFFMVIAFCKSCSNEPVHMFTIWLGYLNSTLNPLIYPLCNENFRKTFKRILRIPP
T3 sequence (P31389 whole entry): as above

Molecule | inhibition at 100 µM (H1 receptor) [%] | Kd (LTD4 receptor) [nM] | Kd (H1 receptor) [nM] | further results
O=C1CS(=O)(=O)c2cc(OCc3cccc(OCc4nc5ccccc5s4)c3)ccc2N1 [Example 78, 7-[3-(2-Benzothiazolylmethoxy)benzyloxy]-3,4-dihydro-2H-1,4-benzothiazin-3-one 1,1-dioxide] | 29 | 12600 |  | inhibition in vivo at 10 mg/kg (leukotriene D4): 32%
O=C1CCCc2cc(OCc3cccc(OCc4ccc5ccccc5n4)c3)ccc21 [Example 89, 6-[3-(2-quinolinylmethoxy)benzyloxy]-1-tetralone] |  | 41.3 |  | pD'2 (antihistaminic action) [1]: 5.09; IC50 [2]: 240 nM; inhibition at 10 µM (H1 receptor): 6%
Cc1ccc(OCc2ccc(OCc3nc4ccccc4n3C)cc2)c2c1NC(=O)C2(C)C [Example 39, 4-[4-(N-methylbenzimidazol-2-yl-methoxy)benzyloxy)-3,3,7-trimethyl-2,3-hydro-1H-indol-2-one] |  |  | 37400 | inhibition at 10 µM [1]: 100%; pD'2 (antihistaminic action) [1]: 6.42; inhibition at 10 µM ([2]; 0.5 h, 10^-5 M, 30 minutes incubation, 37° C., read-out: Anti-LTD4 action (%), contraction inhibition rate): 98%; IC50 [2]: 440 nM; Ki (LTD4 receptor; read-out: LTD4 receptor, dissociation constant KD (converted)): 408 nM
CN(Cc1cccc(OCc2ccc3ccccc3n2)c1)c1ccc2c(c1)SCC(=O)N2C [96(b), 4-methyl-7-[N-methyl-N-(3-(2-quinolinylmethoxy)benzyl)amino]-3,4-dihydro-2H-1,4-benzothiazin-3-one] |  | 315 |  | inhibition at 10 µM [1]: 98%; pD'2 (antihistaminic action) [1]: 6.17; IC50 [2]: 120 nM; inhibition at 10 µM (H1 receptor): 14%
O=C1CCc2ccc(OCc3cccc(OCc4ccc5ccc(Cl)cc5n4)c3)cc2N1 [Example 31, 7-[3-(7-chloro-2-quinolinylmethoxy)benzyloxy]-1,2,3,4-tetrahydroquinolin-2-one] |  | 304 | 19800 | 
Cn1c(COc2cccc(COc3ccc4c(c3)S(=O)(=O)CC(=O)N4)c2)nc2ccccc21 [Example 79, 7-[3-(N-Methylbenzimidazol-2-yl-methoxy)benzyloxy]-3,4-dihydro-2H-1,4-benzothiazin-3-one 1,1-dioxide] | 43 |  |  | inhibition at 10 µM (LTD4 receptor; [3]): 42%
CN1C(=O)CSc2c(NCc3cccc(OCc4ccc5ccccc5n4)c3)cccc21 [Example 97, 4-methyl-8-[3-(2-quinolinylmethoxy)benzylamino]-3,4-dihydro-2H-1,4-benzothiazin-3-one] |  | 681 |  | inhibition at 10 µM (H1 receptor): 7%
7-[4-(2-quinolinylmethoxy)benzyloxy]-2,3,4,5-tetrahydro-tetrazolo-[5,1-a][2]benzazepin [Example 88] |  |  |  | Kd (H1 receptor; 0.5 nM [^3 H]mepyramin, pH 7.5, 37° C., 30 minutes, calculated from IC50 with Cheng-Prusoff formula): 31100 nM; LTD4 receptor (%), inhibition rate (LTD4 receptor; b: 10 μM): 30%
O=C1CSc2c(cccc2NC(=O)c2cccc(OCc3ccc4ccccc4n3)c2)N1 [Example 70, 8-(3-(2-Quinolinylmethoxy)benzoylamino]-3,4-dihydro-2H-1,4-benzothiazin-3-one] | 37 | 208 |  | 
Cc1ccc(OCc2ccc(OCc3ccc4ccccc4n3)cc2)c2c1NC(=O)CC2 [Example 21, 8-Methyl-5-[4-(2-quinolinylmethoxy)benzyloxy]-1,2,3,4-tetrahydroquinolin-2-one] | 28 |  |  | inhibition at 10 µM (LTD4 receptor; [3]): 33%
O=C1NCCCc2cc(OCc3cccc(OCc4ncc5ccccc5n4)c3)ccc21 [Example 86, 7-[3-(2-quinazolinylmethoxy)benzyloxy]-2,3,4,5-tetrahydro-1H-benz[c]azepin-1-one] |  | 92.8 |  | inhibition at 10 µM (H1 receptor): 9%
CCCCCCc1cc(OCc2cccc(OCc3ccc4ccccc4n3)c2)cc2c1C(C)(C)C(=O)N2 [Example 16, 3,3-Dimethyl-4-(n-hexyl)-6-[3-(2-quinolinylmethoxy)benzyloxy]-2,3-dihydro-1H-indol-2-one] | 48 | 2500 |  | 
CCOCCn1c(COc2cccc(COc3ccc4c(c3)SCC(=O)N4)c2)nc2ccccc21 [Example 44, 7-[3-(N-ethoxylethylbenzimidazol-2-yl-methoxy)benzyloxy]-3,4-dihydro-2H-1,4-benzothiazin-3-one] |  | 6300 | 8670 | 
Cc1ccc(OCc2cccc(OCc3ccc4ccccc4n3)c2)c2cc(C#N)c(=O)[nH]c12 [Example 3, 3-Cyano-8-methyl-5-[3-(2-quinolinylmethoxy)benzyloxy]-1,2-dihydroquinolin-2-one] | 44 | 523 |  | 
O=C1CSc2cc(N=Cc3ccc(OCc4ccc5ccccc5n4)cc3)ccc2N1 [Example 92, 7-[4-(2-quinolinylmethoxy)benzylidenamino]-3,4-dihydro-2H-1,4-benzothiazin-3-one] |  |  | 120 | inhibition at 10 µM (LTD4 receptor; [3]): 0%
CCOCCn1c(COc2cccc(COc3ccc(C)c4c3C(C)(C)C(=O)N4)c2)nc2ccccc21 [Example 43, 4-(3-(N-ethoxylethylbenzimidazol-2-yl-methoxy)benzyloxy)-3,3,7-trimethyl-2,3-dihydro-1H-indol-2-one] |  | 5510 | 6060 | 
Cn1c(COc2ccc(COc3ccc4c(c3)SCC(=O)N4)cc2)nc2ccccc21 [Example 38, 7-(4-(N-methylbenzimidazol-2-yl-methoxy)benzyloxy]-3,4-dihydro-2H-1,4-benzothiazin-3-one] | 47 | 303 |  | 
Cc1ccc(OCc2cccc(OCc3nc4ccccc4n3C)c2)c2c1NC(=O)C2(C)C [Example 37, 4-[3-(N-methylbenzimidazol-2-yl-methoxy)benzyloxy)-3,3,7-trimethyl-2,3-hydro-1H-indol-2-one] | 28 | 204 |  | 
O=C1CS(=O)(=O)c2cc(NC(=O)c3cccc(OCc4ccc5ccccc5n4)c3)ccc2N1 [Example 80] | 36 |  |  | inhibition at 10 µM (LTD4 receptor; [3]): 27%
CC1(C)C(=O)Nc2ccc(OC(=O)c3cccc(OCc4ccc5ccccc5n4)c3)cc21 [Example 59, 3,3-Dimethyl-5-[3-(2-quinolinylmethoxy)benzoyloxy]-2,3-dihydro-1H-indol-2-one] | 37 |  |  | inhibition at 100 µM (LTD4 receptor; a: 100 μM, read-out: LTD4 receptor (%), inhibition rate): 53%
O=C1CCc2cccc(OCc3cccc(OCc4ccc5ccccc5n4)c3)c2N1 [Example 8, 8-[3-(2-Quinolinylmethoxy)benzyloxy]-1,2,3,4-tetrahydroquinolin-2-one] |  | 322 | 145000 | 
O=C1CCCc2cc(OCc3cccc(OCc4ncc5ccccc5n4)c3)ccc2N1 [Example 82, 7-[3-(2-quinazolinylmethoxy)benzyloxy]-2,3,4,5-tetrahydro-1H-benz[b]azepin-2-one] |  | 60 |  | inhibition at 10 µM (H1 receptor): 5%
CC1(C)C(=O)Nc2ccc(OCc3ccc(OCc4ccc5ccccc5n4)cc3)cc21 [Example 18, 3,3-dimethyl-5-[4-(2-quinolinylmethoxy)benzyloxy]-2,3-dihydro-1H-indol-2-one] |  | 1100 | 78700 | 
